Experimental data published in patent US20240252576A1, “Application Method of Radix Paeoniae Alba and Dendrobium Officinale for Preparing Drug for Treatment of Hypertension” (Hangzhou Danhe Pharmaceutical Co., Ltd., priority 2018, published 2024).

How the values were obtained:
normal Wistar rat = assay: Experiment 3: blood pressure effect of the sample of the Embodiment 1 on normal rats; assay type: in vivo; details: 5 mg medicine/kg body weight; for diastolic pressure / systolic pressure: normal Wistar rats
Protocol: Rat: 12 Weeks Old Normal Wistar Rat.
Rat blood pressure measurement: BP-98 A type non-invasive tail arterial blood pressure measuring instrument, Softron Co., Ltd. (Japan).
Grouping treatment: All rats were adaptively fed for a week, measured with blood pressure and weight, and set into groups. […] Ten rats for each group, treating for 2 weeks.
Blood pressure measurement: The Rats were pre-heated to 38° C. for 5-10 mins to avoid less blood flow of the tail that affects the pressure measurement. Three measurements are continuously carried out as the rat was in an awake and quiet state. The average value of the 3 measurements was considered as the blood pressure of the rat. The blood pressure is measured prior to the treatment and 2 hours after each administration every week.

[1] = system: hereditary hypertension rats (SHR); assay: Experiment 1: hypotensive effect of alcohol-water dual-extraction of Radix Paeoniae Alba on SHR, tail arterial blood pressure; assay type: in vivo, rat; details: 15 mg/Kg body weight
Description: Rats: old age (over 48 weeks old) hereditary hypertension rats (SHR) and the normal controls were Wistar rats. Rat blood pressure measurement: BP-98 A type non-invasive tail arterial blood pressure measuring instrument, Softron Co., Ltd. (Japan). Grouping treatment: All rats were adaptively fed for a week, measured with blood pressure and weight, and set into groups. SHR rats were divided into alcohol-water dual-extraction of Radix Paeoniae Alba large dosage group for the dosage of 3.2 g/kg body weight, alcohol-water dual-extraction of Radix Paeoniae Alba medium dosage group for the dosage of 0.8 g/kg body weight, alcohol-water dual-extraction of Radix Paeoniae Alba small dosage group for the dosage of 0.2 g/kg body weight, alcohol extraction of Radix Paeoniae Alba group for the dosage of 0.8 g/kg body weight, water extraction of Radix Paeoniae Alba group for the dosage of 0.8 g/kg body weight, Radix Paeoniae Alba powder group for the dosage of 0.8 g/kg body weight; utilizing gastric infusion; hypertension model control group receives equal amount of physiological saline; Irbesartan control group receives 15 mg/Kg body weight of Irbesartan; and normal control group receives equal amount of physiological saline. Each group has 8 rats. The treatment last for 3 weeks (multiple of 3-12 weeks of treatments are performed, the results can be repeated, and typical experimental results are reported below). Blood pressure measurement: The Rats were pre-heated to 38° C. for 5-10 mins to avoid less blood flow of the tail that affects the pressure measurement. Three measurements are continuously carried out as the rat was in an awake and quiet state. The average value of the 3 measurements was considered as the blood pressure of the rat.

[2] = system: hereditary hypertension rats (SHR); assay: Experiment 2: hypotensive effect of the sample of the Embodiment 1 on SHR, tail arterial blood pressure; assay type: in vivo, rat; details: 15 mg/Kg body weight
Description: Rats: old age (over 48 weeks old) hereditary hypertension rats (SHR) and the normal controls were Wistar rats. Rat blood pressure measurement: BP-98 A type non-invasive tail arterial blood pressure measuring instrument, Softron Co., Ltd. (Japan). 1. Grouping treatment: All rats were adaptively fed for a week, measured with blood pressure and weight, and set into groups. SHR rats were grouped: sample of the Embodiment 1 (alcohol-water dual-extraction of Radix Paeoniae Alba with Dendrobium Officinale powder added)-large dosage group for the dosage of 3.5 g/kg body weight, sample of the Embodiment 1-medium dosage group for the dosage of 1.4 g/kg body weight, sample of the Embodiment 1-small dosage group for the dosage of 0.35 g/kg body weight, Dendrobium Officinale powder for the dosage of raw medicine of 0.8 g/kg body weight (which is the same as the raw medicine amount of the Dendrobium Officinale powder (0.8 g/kg body weight) contained in 1.4 g/Kg body weight of the sample of the Embodiment 1), alcohol-water dual-extraction of Radix Paeoniae Alba for the dosage of raw medicine of 0.6 g/kg body weight (which is the same as the raw medicine amount of the Radix Paeoniae Alba (0.6 g/kg body weight) contained in 1.4 g/Kg body weight of the sample of the Embodiment 1); utilizing gastric infusion; hypertension model control group receives equal amount of physiological saline; Irbesartan control group receives 15 mg/Kg body weight of Irbesartan; and normal control group receives equal amount of physiological saline. Each group has 8 rats. The treatment last for 3 weeks (multiple of 3-12 weeks of treatments are performed, the results can be repeated, and typical experimental results are reported below). 2. Blood pressure measurement: The Rats were pre-heated to 38° C. for 5-10 mins to avoid less blood flow of the tail that affects the pressure measurement. Three measurements are continuously carried out as the rat was in an awake and quiet state. The average value of the 3 measurements was considered as the blood pressure of the rat.

[3] = system: adult sitting and lying blood pressure; assay: Clinical test data on the instructions of Irbesartan (Aprovel); assay type: in vivo, human; details: 150-300 mg daily for adults
[4] = system: adult sitting and lying blood pressure; details: adult daily dosage of 150-300 mg, cited from earlier work
[5] = Treated for 1 Week, 2 hours after administration
[6] = Treated for 2 Weeks, 2 hours after administration
[7] = Treated for 3 Weeks, 2 hours after administration
[8] = Treat 3 weeks, 24 hrs, 15 mg/kg
[9] = sitting and lying blood pressure

CCOC(=O)C1=C(COCCN)NC(C)=C(C(=O)OC)C1c1ccccc1Cl (stereo not shown) [Norvasc, amlodipine besylate]
hypotensive effect to the normal blood pressure rats (normal Wistar rat): triggered relatively great hypotensive effect
diastolic pressure (normal Wistar rat; Before Treatment): 99.2 ± 4.87 mmHg
systolic pressure (normal Wistar rat; Before Treatment): 137.6 ± 5.46 mmHg
diastolic pressure (normal Wistar rat; [5]): 71.8 ± 3.76 mmHg
systolic pressure (normal Wistar rat; [5]): 95.7 ± 4.69 mmHg
diastolic pressure (normal Wistar rat; [6]): 74.5±2.76 mmHg
systolic pressure (normal Wistar rat; [6]): 99.2±5.75 mmHg

CCCCC1=NC2(CCCC2)C(=O)N1Cc1ccc(-c2ccccc2-c2nnn[nH]2)cc1 [Irbesartan]
diastolic pressure ([1]; Before Treatment): 166.7 ± 4.21 ^ mmHg
systolic pressure ([1]; Before Treatment): 215.2 ± 4.45 ^ mmHg
diastolic pressure ([1]; First Treated): 155.2 ± 3.25 mmHg
systolic pressure ([1]; First Treated): 181.6 ± 3.12 mmHg
diastolic pressure [1, 5]: 150.8 ± 2.89 mmHg
systolic pressure [1, 5]: 180.4 ± 3.56 mmHg
diastolic pressure [1, 6]: 151.8 ± 2.71 mmHg
systolic pressure [1, 6]: 178.6 ± 2.04 mmHg
diastolic pressure [1, 7]: 152.9 ± 2.89 mmHg
systolic pressure [1, 7]: 177.8 ± 2.12 mmHg
diastolic pressure ([2]; Before Treatment): 166.7 ± 4.21 ^ mmHg
systolic pressure ([2]; Before Treatment): 215.3 ± 5.87 ^ mmHg
diastolic pressure ([2]; Treat 1 time, 2 hrs): 150.1 ± 3.25 mmHg
systolic pressure ([2]; Treat 1 time, 2 hrs): 182.4 ± 3.89 mmHg
diastolic pressure ([2]; Treat 1 time, 24 hrs): 156.6 ± 3.57^Δ mmHg
systolic pressure ([2]; Treat 1 time, 24 hrs): 198.7 ± 3.61 mmHg
diastolic pressure ([2]; Treat 1 week, 2 hrs): 149.7 ± 2.36 mmHg
systolic pressure ([2]; Treat 1 week, 2 hrs): 181.2 ± 3.34 mmHg
diastolic pressure ([2]; Treat 1 week, 24 hrs): 155.3 ± 2.36 mmHg
systolic pressure ([2]; Treat 1 week, 24 hrs): 197.8 ± 2.87 mmHg
diastolic pressure ([2]; Treat 2 weeks, 2 hrs): 147.4 ± 3.46 mmHg
systolic pressure ([2]; Treat 2 weeks, 2 hrs): 177.5 ± 2.23 mmHg
diastolic pressure ([2]; Treat 2 weeks, 24 hrs): 156.2 ± 3.25 mmHg
systolic pressure ([2]; Treat 2 weeks, 24 hrs): 199.9 ± 2.36 mmHg
diastolic pressure ([2]; Treat 3 weeks, 2 hrs, 15 mg/kg): 149.5±3.24 mmHg
systolic pressure ([2]; Treat 3 weeks, 2 hrs, 15 mg/kg): 178.9±3.87 mmHg
diastolic pressure [2, 8]: 154.1±2.08 mmHg
systolic pressure [2, 8]: 198.7±2.24 mmHg
hypotensive extent in the hypotensive peak, diastolic pressure ([3]; calculated from intermediate values 6.5 mmHg/0.7): 9.29 mmHg
hypotensive extent in the hypotensive peak, systolic pressure ([3]; calculated from intermediate values 10.5 mmHg/0.7): 15.00 mmHg
ratio of the hypotensive valley and peak [4]: 60-80%
average hypotensive valley value, diastolic [4, 9]: 5-8 mmHg
average hypotensive valley value, systolic [4, 9]: 8-13 mmHg
